Columns and labels:
[1] = system: HeLa pLuc/705 cells; test: HeLa pLuc/705 assay (luciferase splice-correction readout of ASO activity with enhancer co-treatment); assay type: cell-based; conditions: for increase in 2′-MOE PS activity: 2′-MOE PS fixed at 2.5 μM; for increase in 2′-OMe PS activity: 2′-OMe PS fixed at 5 μM; for increase in PPMO activity: PPMO fixed at 5 μM; for enhancing performance in screen of Selleck Chemicals FDA-approved drug library: primary screen 10 μM, secondary screen 0.1-20 μM; for enhancer concentration range that significantly enhances ASO activity on co-treatment of cells: cell culture co-treatment with ASO or macromolecule; for enhancement of unmodified PMO activity: varied PMO concentration, enhancer fixed (febuxostat 2.5 μM; lonafarnib 250 nM), manual format (96 wells)
Excerpt: The Hela pLuc/705 assay provides a positive readout of ASO's splice-modifying activity. Because messenger RNA (mRNA) splicing occurs in the cell's nucleus, the assay's output is indicative of the effectiveness of delivery of splice-modifying oligomers into the nucleus, which necessarily implies effective cytosolic delivery. The assay utilizes a genetically modified HeLa cell line that has been stably transfected with a gene containing coding sequence for a reporter enzyme (luciferase) and a mutated intron inserted within the coding sequence. The mutated intron cannot be properly excised resulting in an in-frame stop codon in the luciferase coding sequence, which prevents expression of functional luciferase. Two conditions must be met to produce the functional enzyme. First, an ASO must enter the cell nucleus to block the mutated splice site, thus restoring normal splicing and read through of the reporter message. The result is mRNA encoding functional reporter protein. Second, but equally important, the cells must be viable to carry out RNA processing and translation so that reporter protein activity is produced.
Correction through successful nuclear delivery of a splice-modifying ASO restores luciferase expression, which is then quantified by measurement of cell lysate luminescence with addition of luciferin substrate. This assay is a standard measure of intracellular ASO delivery within the field.
The HeLa pLuc/705 assay was miniaturized in order to allow it to be performed in […] cell culture plates, enabling the assay to be adapted to the high-throughput screening setting. The aim was to screen small molecules, with an emphasis on FDA-approved drugs, for ability to enhance ASO splice-modifying activity, which would be indicated by an increase in luminescence relative to cells treated with the ASO alone. In order to validate the approach, a positive control molecule was utilized which was already known to increase ASO activity when used alongside the ASO. Initially, a peptide intended for use in cell culture was used. Subsequently, febuxostat was used as a positive control.
The first screened compounds were the compounds in the Selleck Chemicals FDA-approved drug library for enhancing activity. This library contains 1430 compounds. Library compounds were dispensed to 10 μM in the plate wells. […] These sixteen compounds were evaluated for enhancing performance over the concentration range 0.1-20 μM. This enabled validation of the primary screening results, as well as to evaluate relative performance of hits through observation of concentration-dependent activity. Hits were evaluated based on relative enhancing performance, and they were also qualitatively evaluated for suitability for future therapeutic use, considering the identity, indication and approval status of the compound.
HeLa pLuc/705 cells were seeded into 384-well plates ([…] well volume) and incubated for 24 hours. At 24 hours, DMSO solutions of OAEs were added to subconfluent cells using an HP D300 Digital Dispenser, followed by addition of a testing ASO or DMSO. Cells were incubated for 24 hours. At 24 hours treatment time, growth medium was removed from the cells and […] of a lysis buffer/luciferin solution was added to each well. Luminescence was measured using a BioTek plate reader 5 minutes following addition of the lysis buffer/luciferin solution. Background luminescence values (generated using OAE only/DMSO-matched controls) were subtracted from experimental values. These methods apply to the commonly employed format for the assay using the HP D300 Digital Dispenser, with slight variations used for the high-throughput and manual formats.

[2] = in vivo, po; cited from earlier work
[3] = degrades to tizoxanide; cited from earlier work
[4] = mice, intraperitoneal administration at 10 mg/kg; cited from earlier work
[5] = varied ASO concentration, enhancer fixed (resveratrol 10 μM)

Question: Which results are given for `Cc1nc(-c2ccc(OCC(C)C)c(C#N)c2)sc1C(=O)O` [febuxostat]?
Answer: increase in 2′-MOE PS activity ([1]; enhancer at 5 μM): 3 fold; increase in 2′-OMe PS activity ([1]; enhancer at 10 μM): 6.4 fold; result in screen of MicroSource Discovery Spectrum library ([1]; PPMO): strong hit; increase in PPMO activity ([1]; enhancer at 10 μM): 7.9 fold; enhancing performance in screen of Selleck Chemicals FDA-approved drug library ([1]; PPMO): strong performers; enhancer concentration range that significantly enhances ASO activity on co-treatment of cells [1]: 0.25 to 20 µM; enhancement of unmodified PMO activity [1]: found to enhance the activity

Question: For `Oc1ccc(/C=C/c2cc(O)cc(O)c2)cc1` [resveratrol], which maximum plasma concentration [2] is on record?
Answer: 2.4 µM

Question: What about the “increase in 2′-OMe PS activity” value ([1]; enhancer at 10 μM) of the same compound?
Answer: 1.5 fold

Question: What about the “increase in PPMO activity” value ([1]; enhancer at 10 μM) of the same compound?
Answer: 2.1 fold

Question: What about the “enhancing performance in screen of Selleck Chemicals FDA-approved drug library” value ([1]; PPMO) of the same compound?
Answer: found to be an OAE

Question: What about the “enhancer concentration range that significantly enhances ASO activity on co-treatment of cells” value [1] of the same compound?
Answer: 1 to 20 µM

Question: What about the “enhancement of 2′-MOE PS activity” value ([1]; fixed ASO concentration, varied enhancer concentration) of the same compound?
Answer: did not show enhancement

Question: What about the “enhancement of 2′-MOE PS ASO activity” value [1, 5] of the same compound?
Answer: did show enhancement

Question: What about the “enhancement of 2′-OMe PS ASO activity” value [1, 5] of the same compound?
Answer: failed to enhance activity

Question: For `NC(=O)N1CCC(CC(=O)N2CCC([C@H]3c4ncc(Br)cc4CCc4cc(Cl)cc(Br)c43)CC2)CC1` [lonafarnib], which “increase in 2′-MOE PS activity” value ([1]; enhancer at 250 nM) is on record?
Answer: 2.1 fold

Question: And the “increase in 2′-OMe PS activity” value ([1]; enhancer at 250 nM)?
Answer: 3 fold

Question: And the “increase in PPMO activity” value ([1]; enhancer at 250 nM)?
Answer: 2.6 fold

Question: What about the “enhancing performance in screen of Selleck Chemicals FDA-approved drug library” value ([1]; PPMO) of the same compound?
Answer: strong performers

Question: And the “enhancer concentration range that significantly enhances ASO activity on co-treatment of cells” value [1]?
Answer: 0.1 to 20 µM

Question: What about the “enhancement of unmodified PMO activity” value [1] of the same compound?
Answer: found to enhance the activity

Question: What does the source list for `CC(=O)Oc1ccccc1C(=O)Nc1ncc([N+](=O)[O-])s1` [nitazoxanide]?
Answer: degradation in human plasma [3]: degrade very rapidly; enhancement of PPMO activity in screen of NIH Clinical Collection ([1]; PPMO): significant enhancement; enhancer concentration range that significantly enhances ASO activity on co-treatment of cells [1]: 5 to 20 µM

Question: Which “increase in 2′-MOE PS activity” value ([1]; enhancer at 10 μM) does the source give for `Nc1nc2ccc(Cl)cc2c2nc(-c3ccco3)nn12` [CGS-15943] here?
Answer: 2.6 fold

Question: And the “increase in 2′-OMe PS activity” value ([1]; enhancer at 10 μM)?
Answer: 3.2 fold

Question: And the “enhancement of PPMO activity in screen of NIH Clinical Collection” value ([1]; PPMO)?
Answer: significant enhancement

Question: And the “increase in PPMO activity” value ([1]; enhancer at 10 μM)?
Answer: 4 fold

Question: What about the “enhancer concentration range that significantly enhances ASO activity on co-treatment of cells” value [1] of the same compound?
Answer: 0.25 to 20 µM

Question: And the adverse effects [4]?
Answer: no reported adverse effects

From patent publication US20250241917A1, “SMALL MOLECULE ENHANCERS OF ANTISENSE OLIGO ACTIVITY” (Oregon State University, priority 2022, published 2025)
